According to patent US20220062255A1 (PRILENIA NEUROTHERAPEUTICS LTD., priority 2016, published 2022):
Several values for one entry are separate records, joined by “and”; a condition that tells them apart may be missing. Equal entries are not always repeated. Where two headings read alike, the source gives them in different places.

Experiments:
[1] = target: T1, Sigma-1 Receptor (S1R) (Homo sapiens, UniProt Q99720); test: In-vitro binding assay, Sigma-1 receptor; conditions: Cheng Prusoff; Eurofins Panlabs; source Johnston et al. 2019 and NC20-PHARM-2
T1 construct: Eurofins Panlabs Taiwan; Ltd. (performed the assay)
T1 sequence (Q99720 whole entry, species assumed): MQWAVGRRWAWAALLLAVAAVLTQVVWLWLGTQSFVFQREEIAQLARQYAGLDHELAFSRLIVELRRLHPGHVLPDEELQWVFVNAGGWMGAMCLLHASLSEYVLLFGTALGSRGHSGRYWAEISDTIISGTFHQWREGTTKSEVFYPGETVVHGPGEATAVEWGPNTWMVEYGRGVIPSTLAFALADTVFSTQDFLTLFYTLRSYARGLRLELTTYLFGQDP
Protocol: (§1) In-vitro binding assays performed at Eurofins Panlabs Taiwan. Ltd. Specific ligand binding was determined in the presence of an excess of unlabelled ligand.

[2] = target: T2, Sigma-2 receptor (S2R) (Homo sapiens, UniProt Q5BJF2); test: In-vitro binding assay, Sigma-2 receptor; conditions: Cheng Prusoff; Eurofins Panlabs; source Johnston et al. 2019 and NC20-PHARM-2
T2 construct: Eurofins Panlabs Taiwan; Ltd. (performed the assay)
T2 sequence (Q5BJF2 whole entry, species assumed): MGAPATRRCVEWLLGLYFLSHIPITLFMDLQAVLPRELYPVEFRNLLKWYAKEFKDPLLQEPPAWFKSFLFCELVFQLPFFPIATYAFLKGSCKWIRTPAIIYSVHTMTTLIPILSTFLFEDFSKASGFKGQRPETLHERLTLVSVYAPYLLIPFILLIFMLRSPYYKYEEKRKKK
Protocol: as §1

[3] = system: BDNF secretion from B104 neuroblastoma cells; test: BDNF in-situ ELISA, B104 neuroblastoma cells; type: cell-based, rat; conditions: together with pridopidine
[4] = system: Retinal Ganglion Cells (RGCs); conditions: for RGC Loss (%): day 41, OD (OHT) vs OS eye, mean±SEM, DDW control 43±6%; for RGC neuroprotection (%): vs DDW control
Protocol: In this model, sclerosis of the aqueous veins via retrograde introduction of hypertonic saline increases intraocular pressure (IOP). Hypertonic saline injection (HSI) was performed on day 0 and day 7 into the episcleral veins of the right eye of pigmented Brown Norway. Rats were sedated with ketamine and xylazine (40-80 and 5-10 mg/kg, respectively), kept warm and eyes moist to avoid desiccation during the procedure. Eye surface was treated with erythromycin (0.5%). On Days 0 and 7, hypertonic saline solution (250 μL, NaCl, 1.8-2.0M) was injected into the limbal vascular plexus via different episcleral veins in the OHT eye. For IOP measurement, corneas were anaesthetized with 0.5% proparacaine HCl ophthalmic solution and then IOP measured using a Tono-Pen Vet. Ten repeated readings were averaged from each eye. […] Over the course of the study, animals were clinically evaluated daily, and IOP and body weight measured weekly (FIG. 1).
The number of RGCs was quantified using immunofluorescent staining for the RGC marker brain-specific homeobox/POU domain protein 3A (Brn-3a), followed by image analysis. Eyes were immediately enucleated following CO2 euthanization and fixed in paraformaldehyde (PFA, 4%) at 4° C. for 24 hours, then dissected in PBS. Retinas were permeabilized in PBS+0.5% Triton X-100 for 15 minutes, frozen at −80° C. for 15 minutes, then rinsed in PBS-0.5% Triton. […] Four radial cuts were made in the retina and it was flat-mounted. Two regions of interest (medial and distal) were acquired in each quadrant (FIG. 3) with fluorescent microscopy, and RGCs counted using ImageJ.
The percent of RGC loss was calculated by comparing the number of RGC counts per retina in the OD eye to that in the OS eye from the same animal. […] RGC neuroprotection (%) in each animal was calculated as following: [100×((1−RGC Loss (%)/Average RGC Loss (%) in Control group))]. […] Representative images of RGC staining can be seen in FIG. 5.

[5] = system: laser coagulation (LC) model of experimental glaucoma; conditions: for Area under curve (AUC) of IOP, Total Area: lasered eyes, vehicle 272, contralateral control 185
Protocol: (§2) Unilateral induction of IOP elevation was performed twice, at day 0 and day 7. IOP increase was induced by 532 nm diode laser (Oculight® TX; Iridex) photocoagulation of episcleral veins, as previously described. IOP was measured with a TonoLab tonometer.
(§3) IOP was measured at baseline, and after laser photocoagulation on days 1, 4, 7, 8, and 14 (FIG. 10).

[6] = system: RGCs; conditions: day 14; for number of RGCs per retinal area, Control eye, Mean: contralateral eye; for RGC Difference % (decrease, lasered vs control eye): vehicle 16.7%
Protocol: In Wistar rats, the laser coagulation (LC) model of experimental glaucoma was utilized.
as §2, §3
On day 14, rats were sacrificed by transcardial perfusion, first with 0.9% NaCl solution, then with 4% PFA in 0.1M phosphate buffer, pH 7.4. Eyes and optic nerves were collected for immunohistochemical analysis. The number of RGCs was quantified using immunofluorescent staining for RNA-binding protein with multiple splicing (RBPMS), an RGC-specific marker, and DAPI nuclear stain followed by stereological analysis of the entire retina (FIG. 11).

[7] = system: optic nerve axons; conditions: for Number of optic nerve axons, Lasered eye, Mean / Number of optic nerve axons, Control eye, Mean / loss of optic nerve axons, Difference % (LC eye vs control eye): day 14; for Number of optic nerve axons, Control eye, Mean: contralateral eye; for loss of optic nerve axons, Difference % (LC eye vs control eye): vehicle 27.5% in text; for Axonal protection (%): vs vehicle group
Protocol: Neuroprotective preservation of visual function in glaucoma and other optic neuropathies depends not only on preservation of cell bodies, but also on maintaining connectivity between the eye and the brain. Connectivity is preserved by protecting RGC axons which make up the optic nerve. […] Unilateral induction of IOP elevation was performed twice, at day 0 and day 7. IOP increase was induced by 532 nm diode laser (Oculight® TX; Iridex) photocoagulation of episcleral veins, as previously described. IOP was measured with a TonoLab tonometer.
IOP was measured at baseline, and after laser photocoagulation on days 1, 4, 7, 8, and 14.
On day 14, rats were sacrificed by transcardial perfusion, first with 0.9% NaCl solution, then with 4% PFA in 0.1M phosphate buffer, pH 7.4. Eyes and optic nerves were collected for immunohistochemical analysis.
Optic nerves were postfixed in 4% PFA (in 0.1M phosphate buffer, pH 7.4), placed in 1% osmium, dehydrated in ascending alcohol concentrations, and placed in 1% uranyl acetate in 100% ethanol for 1 hour. Optic nerves were embedded in epoxy resin mixture at 60° C. for 48 hours and 1 μm sections prepared. Axon number was estimated using stereology.
High IOPs immediately after LC procedure could be associated with retinal ischemia, and low IOP's could indicate failure to establish the model.

[8] = system: dry AMD; conditions: long-term oral administration; paper example
Excerpt: The pathological correlation for the decline of visual acuity is the progressive expansion of the degenerated area of the retina (i.e., geographic atrophy), specifically in the macula.

[9] = system: RGCs; conditions: topical to the HSI treated eye, paper example
[10] = system: glaucoma; conditions: long-term oral administration; paper example
[11] = system: wet AMD; conditions: long-term oral administration; paper example
[12] = system: retinitis pigmentosa; conditions: periodic oral administration; paper example
[13] = system: optic neuropathy; conditions: long-term oral administration; paper example
[14] = system: BDNF secretion from B104 neuroblastoma cells; conditions: in-situ ELISA; Geva, et al. 2016; cited from earlier work

For `CCCN1CC[C@@H](c2cccc(S(C)(=O)=O)c2)[C@@H](O)C1` [Compound 4], the Ki [1] was 2900 nM, the Ki [2] was greater than 100000 nM and the “effect with pridopidine on BDNF secretion” value [3] was “synergistic effect”.

With `CCCN1CCC(O)(c2cccc(S(C)(=O)=O)c2)CC1` [Compound 1] the Ki [1] was 370 nM, the Ki [2] was greater than 100000 nM and the “effect with pridopidine on BDNF secretion” value [3] was “synergistic effect”.

With `CCCN1CCC(c2cccc(S(C)(=O)=O)c2)CC1` [Pridopidine, 4-(3-(Methylsulfonyl)phenyl)-1-propylpiperidine] the “RGC Loss (%)” value ([4]; 3 mg/kg oral daily) was 25±7% and 25%, the “RGC neuroprotection (%)” value ([4]; 3 mg/kg oral daily) was 42% and the “RGC Loss (%)” value ([4]; 30 mg/kg oral daily) was 21±6% and 21%. For the same molecule, the “RGC neuroprotection (%)” value ([4]; 30 mg/kg oral daily) was 50%, the “RGC Loss (%)” value ([4]; 60 mg/kg oral daily) was 7±9% and 7% and the “RGC neuroprotection (%)” value ([4]; 60 mg/kg oral daily) was 83%. The “Area under curve (AUC) of IOP, Total Area” value (“Area under curve (AUC)” below) ([5]; 3 mg/kg oral daily) was 255, the “Area under curve (AUC)” value ([5]; 30 mg/kg oral daily) was 289 and the “Area under curve (AUC)” value ([5]; 60 mg/kg oral daily) was 295. The “effect on IOP of lasered eyes” value ([5]; 3, 30 and 60 mg/kg oral daily, one-way ANOVA, P≥0.26) was “no difference in the IOP of lasered eyes”, the “number of RGCs per retinal area, Lasered eye, Mean” value ([6]; 3 mg/kg oral daily) was 1315 and the “number of RGCs per retinal area, Control eye, Mean” value ([6]; 3 mg/kg oral daily) was 1404. The “RGC Difference % (decrease, lasered vs control eye)” value ([6]; 3 mg/kg oral daily) was 5.2%, the “number of RGCs per retinal area, Lasered eye, Mean” value ([6]; 30 mg/kg oral daily) was 1336 and the “number of RGCs per retinal area, Control eye, Mean” value ([6]; 30 mg/kg oral daily) was 1444. The “RGC Difference % (decrease, lasered vs control eye)” value ([6]; 30 mg/kg oral daily) was 7.7%, the “number of RGCs per retinal area, Lasered eye, Mean” value ([6]; 60 mg/kg oral daily) was 1198 and the “number of RGCs per retinal area, Control eye, Mean” value ([6]; 60 mg/kg oral daily) was 1417. The “RGC Difference % (decrease, lasered vs control eye)” value ([6]; 60 mg/kg oral daily) was 13.9%, the “Number of optic nerve axons, Lasered eye, Mean” value ([7]; 3 mg/kg oral daily) was 358 and the “Number of optic nerve axons, Control eye, Mean” value ([7]; 3 mg/kg oral daily) was 394. The “loss of optic nerve axons, Difference % (LC eye vs control eye)” value (“loss of optic nerve axons, Difference %” below) ([7]; 3 mg/kg oral daily) was 8.6%, the “Axonal protection (%)” value ([7]; 3 mg/kg oral daily) was 69% and the “Number of optic nerve axons, Lasered eye, Mean” value ([7]; 30 mg/kg oral daily) was 363. For the same molecule, the “Number of optic nerve axons, Control eye, Mean” value ([7]; 30 mg/kg oral daily) was 433, the “loss of optic nerve axons, Difference %” value ([7]; 30 mg/kg oral daily) was 15% and the “Axonal protection (%)” value ([7]; 30 mg/kg oral daily) was 45%. For the same molecule, the “Number of optic nerve axons, Lasered eye, Mean” value ([7]; 60 mg/kg oral daily) was 365, the “Number of optic nerve axons, Control eye, Mean” value ([7]; 60 mg/kg oral daily) was 395 and the “loss of optic nerve axons, Difference %” value ([7]; 60 mg/kg oral daily) was 7.24% and 7.6%. For the same molecule, the “Axonal protection (%)” value ([7]; 60 mg/kg oral daily) was 74%, the “efficacy in dry AMD patients” value [8] was “effective in treating human patients with dry AMD” and the “viability of the RGCs and RGC loss” value ([9]; groups 2, 3 and 4 vs group 1) was “significantly increases viability of the RGCs and reduces RCG loss”. The “protection of RGC axons” value [9] was “protects RGC axons”, the “efficacy in glaucoma patients” value [10] was “effective in treating human patients with glaucoma” and the “efficacy in wet AMD patients” value [11] was “effective in treating human patients with wet AMD”. The “efficacy in retinitis pigmentosa patients” value [12] was “effective in treating human patients with retinitis pigmentosa”, the “efficacy in optic neuropathy patients” value [13] was “effective in treating human patients with optic neuropathy” and the “BDNF secretion in rat neuroblastoma cells” value [14] was “dose dependent increase in BDNF secretion”.
